Laboratory results taken from patent US12091426B2, “Bifunctional degraders of hematopoietic progenitor kinase and therapeutic uses thereof” (Nurix Therapeutics, Inc., priority 2021, dated 2024).

Target: T1, HPK1 (Homo sapiens, UniProt Q92918)
T1 construct: A HiBiT tag was introduced by CRISPR on the N terminus of HPK1 in Jurkat cells; host or cells: Jurkat cells (ATCC TIB-152), monoclonal line with CRISPR knock-in of HiBiT at the endogenous HPK1 locus
Assay: HPK1 Cellular HiBit Degradation Assay
Assay type: cell-based
Conditions: HiBiT HPK1 Jurkat cells, 24 hrs; for DC50: concentration at which 50% of HPK1 was remaining, read-out: DC50 Category; for Dmax: Jurkat, maximum degradation vs DMSO vehicle control, read-out: Dmax Category
Method in brief: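 Jurkat cells with CRISPR N-terminal HiBiT-tagged endogenous HPK1 treated 24 h at 37 °C with 11-point, 3.16-fold dilutions (10 uM to 0.1 nM final). HiBiT lytic luminescence gives % HPK1 remaining versus DMSO, with parental cells as background. Four-parameter fit yields DC50; Dmax = 100 minus lowest % remaining.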

T1 sequence (Q92918 whole entry): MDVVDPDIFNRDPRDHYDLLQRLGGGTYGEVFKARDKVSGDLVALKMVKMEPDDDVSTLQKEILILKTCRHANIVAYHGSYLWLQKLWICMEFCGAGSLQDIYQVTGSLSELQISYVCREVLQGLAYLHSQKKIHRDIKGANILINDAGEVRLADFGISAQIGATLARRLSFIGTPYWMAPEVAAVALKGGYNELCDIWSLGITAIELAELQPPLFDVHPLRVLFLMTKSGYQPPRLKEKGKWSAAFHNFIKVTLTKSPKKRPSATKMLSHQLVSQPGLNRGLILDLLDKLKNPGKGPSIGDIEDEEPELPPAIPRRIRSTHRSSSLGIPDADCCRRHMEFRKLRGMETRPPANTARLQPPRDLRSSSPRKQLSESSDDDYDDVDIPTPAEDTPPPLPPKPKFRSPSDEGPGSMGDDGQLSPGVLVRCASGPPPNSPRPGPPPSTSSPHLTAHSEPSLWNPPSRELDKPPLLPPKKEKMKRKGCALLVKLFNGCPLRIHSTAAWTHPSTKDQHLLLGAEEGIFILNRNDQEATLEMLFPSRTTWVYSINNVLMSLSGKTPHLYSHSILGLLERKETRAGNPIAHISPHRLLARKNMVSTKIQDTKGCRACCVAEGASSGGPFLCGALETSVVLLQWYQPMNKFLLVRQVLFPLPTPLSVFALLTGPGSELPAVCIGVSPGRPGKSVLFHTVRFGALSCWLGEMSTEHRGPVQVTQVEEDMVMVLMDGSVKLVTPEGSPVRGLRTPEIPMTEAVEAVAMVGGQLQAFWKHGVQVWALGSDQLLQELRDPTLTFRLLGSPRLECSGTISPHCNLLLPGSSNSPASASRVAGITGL

Row | Structure (SMILES) | DC50 | Dmax
1 | CC(C)n1cnc2cc(-c3ccc4c(c3)N([C@H]3C[C@@H](N5CCCCC5)C3)C(=O)C43CCN(C(=O)[C@H]4CN(C(=O)C5CCN(c6ccc(C7CCC(=O)NC7=O)cc6)CC5)CC4(C)C)CC3)nc(NC3CC3)c21 (mixture of isomers) [Example 252, (3RS)-3-(4-{4-[(4R)-4-({6-[4-(cyclopropylamino)-3-(propan-2-yl)-3H-imidazo[4,5-c]pyridin-6-yl]-2-oxo-1-[(1S,3S)-3-(piperidin-1-yl)cyclobutyl]-1,2-dihydrospiro[indole-3,4′-piperidin]-1′-yl}carbonyl)-3,3-dimethylpyrrolidine-1-carbonyl]piperidin-1-yl}phenyl)piperidine-2,6-dione] | < 100 nM | 70 to 85%
2 | CC1CN(C(=O)C2CCN(c3ccc(C4CCC(=O)NC4=O)cn3)CC2)CCC1C(=O)N1CCC2(CC1)C(=O)N([C@H]1C[C@@H](N3CCCCC3)C1)c1cc(-c3cc4ncn(C(C)C)c4c(NC4CC4)n3)ccc12 (mixture of isomers) [Example 253, (3RS)-3-(6-{4-[4-({6-[4-(cyclopropylamino)-3-(propan-2-yl)-3H-imidazo[4,5-c]pyridin-6-yl]-2-oxo-1-[(1S,3S)-3-(piperidin-1-yl)cyclobutyl]-1,2-dihydrospiro[indole-3,4′-piperidin]-1′-yl}carbonyl)-3-methylpiperidine-1-carbonyl]piperidin-1-yl}pyridin-3-yl)piperidine-2,6-dione] | < 100 nM | 70 to 85%
3 | CC1C(C(=O)N2CCC3(CC2)C(=O)N([C@H]2C[C@@H](N4CCCCC4)C2)c2cc(-c4cc5ncn(C(C)C)c5c(NC5CC5)n4)ccc23)CCCN1C(=O)C1CCN(c2ccc(C3CCC(=O)NC3=O)cc2)CC1 (mixture of isomers) [Example 254, (3RS)-3-(4-{4-[3-({6-[4-(cyclopropylamino)-3-(propan-2-yl)-3H-imidazo[4,5-c]pyridin-6-yl]-2-oxo-1-[(1S,3S)-3-(piperidin-1-yl)cyclobutyl]-1,2-dihydrospiro[indole-3,4′-piperidin]-1′-yl}carbonyl)-2-methylpiperidine-1-carbonyl]piperidin-1-yl}phenyl)piperidine-2,6-dione] | 100 to 500 nM | 50 to 70%
4 | CCC1(C(=O)N2CCC3(CC2)C(=O)N([C@H]2C[C@@H](N4CCCCC4)C2)c2cc(-c4cc5ncn(C(C)C)c5c(NC5CC5)n4)ccc23)CCN(C(=O)C2CCN(c3ccc(C4CCC(=O)NC4=O)cn3)CC2)CC1 (mixture of isomers) [Example 255, (3RS)-3-(6-{4-[4-({6-[4-(cyclopropylamino)-3-(propan-2-yl)-3H-imidazo[4,5-c]pyridin-6-yl]-2-oxo-1-[(1S,3S)-3-(piperidin-1-yl)cyclobutyl]-1,2-dihydrospiro[indole-3,4′-piperidin]-1′-yl}carbonyl)-4-ethylpiperidine-1-carbonyl]piperidin-1-yl}pyridin-3-yl)piperidine-2,6-dione] | < 100 nM | > 85%
5 | COC1CC(C(=O)N2CCC3(CC2)C(=O)N([C@H]2C[C@@H](N4CCCCC4)C2)c2cc(-c4cc5ncn(C(C)C)c5c(NC5CC5)n4)ccc23)CN(C(=O)C2CCN(c3ccc(C4CCC(=O)NC4=O)cn3)CC2)C1 (mixture of isomers) [Example 256, (3RS)-3-(6-{4-[3-({6-[4-(cyclopropylamino)-3-(propan-2-yl)-3H-imidazo[4,5-c]pyridin-6-yl]-2-oxo-1-[(1S,3S)-3-(piperidin-1-yl)cyclobutyl]-1,2-dihydrospiro[indole-3,4′-piperidin]-1′-yl}carbonyl)-5-methoxypiperidine-1-carbonyl]piperidin-1-yl}pyridin-3-yl)piperidine-2,6-dione] | 100 to 500 nM | 50 to 70%
6 | COC1CN(C(=O)C2CCN(c3ccc(C4CCC(=O)NC4=O)cc3)CC2)CCC1C(=O)N1CCC2(CC1)C(=O)N([C@H]1C[C@@H](N3CCCCC3)C1)c1cc(-c3cc4ncn(C(C)C)c4c(NC4CC4)n3)ccc12 (mixture of isomers) [Example 257, (3RS)-3-(4-{4-[4-({6-[4-(cyclopropylamino)-3-(propan-2-yl)-3H-imidazo[4,5-c]pyridin-6-yl]-2-oxo-1-[(1S,3S)-3-(piperidin-1-yl)cyclobutyl]-1,2-dihydrospiro[indole-3,4′-piperidin]-1′-yl}carbonyl)-3-methoxypiperidine-1-carbonyl]piperidin-1-yl}phenyl)piperidine-2,6-dione] | < 100 nM | 50 to 70%
7 | CC(C)n1cnc2cc(-c3ccc4c(c3)N([C@H]3C[C@@H](N5CCCCC5)C3)C(=O)C43CCN(C(=O)C4(C#N)CCN(C(=O)C5CCN(c6ccc(C7CCC(=O)NC7=O)cc6)CC5)CC4)CC3)nc(NC3CC3)c21 (mixture of isomers) [Example 258, 4-({6-[4-(cyclopropylamino)-3-(propan-2-yl)-3H-imidazo[4,5-c]pyridin-6-yl]-2-oxo-1-[(1S,3S)-3-(piperidin-1-yl)cyclobutyl]-1,2-dihydrospiro[indole-3,4′-piperidin]-1′-yl}carbonyl)-1-(1-{4-[(3RS)-2,6-dioxopiperidin-3-yl]phenyl}piperidine-4-carbonyl)piperidine-4-carbonitrile] | < 100 nM | 70 to 85%
8 | CC(C)n1cnc2cc(-c3ccc4c(c3)N([C@H]3C[C@@H](N5CCCCC5)C3)C(=O)C43CCN(C(=O)[C@@]45C[C@@H]4CN(C(=O)C4CCN(c6ccc(C7CCC(=O)NC7=O)cn6)CC4)C5)CC3)nc(NC3CC3)c21 (mixture of isomers) [Example 259, (3RS)-3-(6-{4-[(1S,5S)-1-({6-[4-(cyclopropylamino)-3-(propan-2-yl)-3H-imidazo[4,5-c]pyridin-6-yl]-2-oxo-1-[(1S,3S)-3-(piperidin-1-yl)cyclobutyl]-1,2-dihydrospiro[indole-3,4′-piperidin]-1′-yl}carbonyl)-3-azabicyclo[3.1.0]hexane-3-carbonyl]piperidin-1-yl}pyridin-3-yl)piperidine-2,6-dione] | < 100 nM | 70 to 85%
9 | CC(C)n1cnc2cc(-c3ccc4c(c3)N([C@H]3C[C@@H](N5CCCCC5)C3)C(=O)C43CCN(C(=O)[C@H]4[C@@H]5CN(C(=O)C6CCN(c7ccc(C8CCC(=O)NC8=O)cn7)CC6)C[C@@H]54)CC3)nc(NC3CC3)c21 (mixture of isomers) [Example 260, (3RS)-3-(6-{4-[(1R,5S,6S)-6-({6-[4-(cyclopropylamino)-3-(propan-2-yl)-3H-imidazo[4,5-c]pyridin-6-yl]-2-oxo-1-[(1S,3S)-3-(piperidin-1-yl)cyclobutyl]-1,2-dihydrospiro[indole-3,4′-piperidin]-1′-yl}carbonyl)-3-azabicyclo[3.1.0]hexane-3-carbonyl]piperidin-1-yl}pyridin-3-yl)piperidine-2,6-dione] | < 100 nM | 70 to 85%
10 | CC(C)n1cnc2cc(-c3ccc4c(c3)N([C@H]3C[C@@H](N5CCCCC5)C3)C(=O)C43CCN(C(=O)[C@H]4C[C@H]5C[C@@H]4CN5C(=O)C4CCN(c5ccc(C6CCC(=O)NC6=O)cn5)CC4)CC3)nc(NC3CC3)c21 (mixture of isomers) [Example 261, (3RS)-3-(6-{4-[(1R,4S,5S)-5-({6-[4-(cyclopropylamino)-3-(propan-2-yl)-3H-imidazo[4,5-c]pyridin-6-yl]-2-oxo-1-[(1S,3S)-3-(piperidin-1-yl)cyclobutyl]-1,2-dihydrospiro[indole-3,4′-piperidin]-1′-yl}carbonyl)-2-azabicyclo[2.2.1]heptane-2-carbonyl]piperidin-1-yl}pyridin-3-yl)piperidine-2,6-dione] | < 100 nM | 70 to 85%
11 | CC(C)n1cnc2cc(-c3ccc4c(c3)N([C@H]3C[C@@H](N5CCCCC5)C3)C(=O)C43CCN(C(=O)[C@@H]4C[C@H]5CC[C@@H](C4)N5C(=O)C4CCN(c5ccc(C6CCC(=O)NC6=O)cc5)CC4)CC3)nc(NC3CC3)c21 (mixture of isomers) [Example 262, (3RS)-3-(4-{4-[(1R,3R,5S)-3-({6-[4-(cyclopropylamino)-3-(propan-2-yl)-3H-imidazo[4,5-c]pyridin-6-yl]-2-oxo-1-[(1S,3S)-3-(piperidin-1-yl)cyclobutyl]-1,2-dihydrospiro[indole-3,4′-piperidin]-1′-yl}carbonyl)-8-azabicyclo[3.2.1]Octane-8-carbonyl]piperidin-1-yl}phenyl)piperidine-2,6-dione] | < 100 nM | 70 to 85%
12 | CC(C)n1cnc2cc(-c3ccc4c(c3)N([C@H]3C[C@@H](N5CCCCC5)C3)C(=O)C43CCN(C(=O)[C@]45C[C@H]4CN(C(=O)C4CCN(c6ccc(C7CCC(=O)NC7=O)cc6)CC4)C5)CC3)nc(NC3CC3)c21 (mixture of isomers) [Example 263, (3RS)-3-(4-{4-[(1R,5R)-1-({6-[4-(cyclopropylamino)-3-(propan-2-yl)-3H-imidazo[4,5-c]pyridin-6-yl]-2-oxo-1-[(1S,3S)-3-(piperidin-1-yl)cyclobutyl]-1,2-dihydrospiro[indole-3,4′-piperidin]-1′-yl}carbonyl)-3-azabicyclo[3.1.0]hexane-3-carbonyl]piperidin-1-yl}phenyl)piperidine-2,6-dione] | < 100 nM | 50 to 70%
13 | CC(C)n1cnc2cc(-c3ccc4c(c3)N([C@H]3C[C@@H](N5CCCCC5)C3)C(=O)C43CCN(C(=O)[C@@H]4CCCN(C(=O)C5CCN(c6ccc(C7CCC(=O)NC7=O)cn6)CC5)C4)CC3)nc(NC3CC3)c21 (mixture of isomers) [Example 264, (3RS)-3-(6-{4-[(3R)-3-({6-[4-(cyclopropylamino)-3-(propan-2-yl)-3H-imidazo[4,5-c]pyridin-6-yl]-2-oxo-1-[(1S,3S)-3-(piperidin-1-yl)cyclobutyl]-1,2-dihydrospiro[indole-3,4′-piperidin]-1′-yl}carbonyl)piperidine-1-carbonyl]piperidin-1-yl}pyridin-3-yl)piperidine-2,6-dione] | < 100 nM | 70 to 85%
